The text below walks through data of patent US9777005B2 (Takeda Pharmaceutical Company Limited, priority 2012, dated 2017).

This test has as its target T1, human M1 receptor (hCHRM1) (Homo sapiens, UniProt P11229).
T1 construct: expressed in transfected cells; host or cells: CHO-K1
T1 sequence (P11229 1-460): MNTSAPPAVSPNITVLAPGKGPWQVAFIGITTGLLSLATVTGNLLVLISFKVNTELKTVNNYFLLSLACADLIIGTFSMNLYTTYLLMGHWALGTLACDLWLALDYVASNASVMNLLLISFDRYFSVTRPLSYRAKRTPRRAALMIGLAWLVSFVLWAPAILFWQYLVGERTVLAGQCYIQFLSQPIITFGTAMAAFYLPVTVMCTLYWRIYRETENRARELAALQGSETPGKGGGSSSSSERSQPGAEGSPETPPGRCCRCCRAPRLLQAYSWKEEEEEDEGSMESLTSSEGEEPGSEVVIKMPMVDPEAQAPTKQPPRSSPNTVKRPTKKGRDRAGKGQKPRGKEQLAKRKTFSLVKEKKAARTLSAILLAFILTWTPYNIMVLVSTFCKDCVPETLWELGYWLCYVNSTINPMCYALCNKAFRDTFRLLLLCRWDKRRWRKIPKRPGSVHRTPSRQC
Nature of the test: Measurement of M1 receptor positive allosteric modulator (M1PAM) activity, calcium fluorescence (FLIPRtetra) in CHO-K1 cells in the presence of acetylcholine at EC20. The format is cell-based. The conditions noted are these: in the presence of acetylcholine at EC20 (final 0.6 nM), CHO-K1 cells expressing hCHRM1; for EC50: inflection point of M1PAM activity, read-out: IP value; for activity (%) at 10 μM: test compound 10 μM. An outline of the steps:
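CHO-K1 cells expressing human M1 were loaded with Fluo-4 AM, and compound was added with acetylcholine at EC20 (final 0.6 nM). Calcium fluorescence was read on FLIPRtetra for 1 min. Activity was normalized to 1 μM acetylcholine (100%) and DMSO (0%), and the curve inflection point was reported as IP.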

In the case of `COCc1ccc(F)c(Oc2nccc3c2C(=O)N(Cc2ccc(-c4ccnc(C)c4)cc2)C3)c1` [Example 291, 4-(2-fluoro-5-(methoxymethyl)phenoxy)-2-(4-(2-methylpyridin-4-yl)benzyl)-1,2-dihydro-3H-pyrrolo[3,4-c]pyridin-3-one], the EC50 came out at 34 nM and the “activity (%) at 10 μM” value was determined as 91%.
Consider `O=C1c2c(ccnc2OCC2CCCO2)CN1Cc1ccc(-c2cnn3c2CCCC3)cc1` (stereo not drawn) [Example 296, 4-((tetrahydrofuran-2-yl)methoxy)-2-(4-(4,5,6,7-tetrahydropyrazolo[1,5-a]pyridin-3-yl)benzyl)-1,2-dihydro-3H-pyrrolo[3,4-c]pyridin-3-one], for which the EC50 came to 12 nM and the “activity (%) at 10 μM” value is reported as 92%.
`Cn1cc(-c2ccc(CN3Cc4ccnc(Oc5cc(C#N)ccc5F)c4C3=O)cc2)cn1` [Example 297, 4-fluoro-3-((2-(4-(1-methyl-1H-pyrazol-4-yl)benzyl)-3-oxo-2,3-dihydro-1H-pyrrolo[3,4-c]pyridin-4-yl)oxy)benzonitrile]: the EC50 is 16 nM and the “activity (%) at 10 μM” value is reported as 96%.
For `COCc1ccc(F)c(Oc2nccc3c2C(=O)N(Cc2ccc(-c4cnn(C)c4)cc2)C3)c1` [Example 302, 4-(2-fluoro-5-(methoxymethyl)phenoxy)-2-(4-(1-methyl-1H-pyrazol-4-yl)benzyl)-1,2-dihydro-3H-pyrrolo[3,4-c]pyridin-3-one], the EC50 is 32 nM and the “activity (%) at 10 μM” value was found to be 92%.
Take `Cc1cc(-c2ccc(CN3Cc4ccnc(Oc5ccc(C(F)(F)F)cc5F)c4C3=O)cc2)cnn1` [Example 303, 4-(2-fluoro-4-(trifluoromethyl)phenoxy)-2-(4-(6-methylpyridazin-4-yl)benzyl)-1,2-dihydro-3H-pyrrolo[3,4-c]pyridin-3-one]: the EC50 was determined as 8.5 nM and the “activity (%) at 10 μM” value is 91%.
With `Cn1cc(-c2ccc(CN3Cc4ccnc(Oc5ccc(C(F)(F)F)cc5F)c4C3=O)cc2)cn1` [Example 304, 4-(2-fluoro-4-(trifluoromethyl)phenoxy)-2-(4-(1-methyl-1H-pyrazol-4-yl)benzyl)-1,2-dihydro-3H-pyrrolo[3,4-c]pyridin-3-one], the EC50 was 12 nM and the “activity (%) at 10 μM” value was found to be 93%.
For `Cn1ccc(-c2ccc(CN3Cc4ccnc(Oc5ccc(C(F)(F)F)cc5F)c4C3=O)cc2)n1` [Example 305, 4-(2-fluoro-4-(trifluoromethyl)phenoxy)-2-(4-(1-methyl-1H-pyrazol-3-yl)benzyl)-1,2-dihydro-3H-pyrrolo[3,4-c]pyridin-3-one], in that order: 25 nM and 94%.
Consider `Cn1cc(-c2ccc(CN3Cc4ncnc(Oc5ccc(C(F)(F)F)cc5F)c4C3=O)cc2)cn1` [Example 306, 4-(2-fluoro-4-(trifluoromethyl)phenoxy)-6-(4-(1-methyl-1H-pyrazol-4-yl)benzyl)-6,7-dihydro-5H-pyrrolo[3,4-d]pyrimidin-5-one], for which the EC50 worked out at 8.9 nM and the “activity (%) at 10 μM” value is 97%.
The corresponding values for `Cn1cc(-c2ccc(CN3Cc4ncnc(Oc5ccc(C(F)F)cc5F)c4C3=O)cc2)cn1` [Example 307, 4-(4-(difluoromethyl)-2-fluorophenoxy)-6-(4-(1-methyl-1H-pyrazol-4-yl)benzyl)-6,7-dihydro-5H-pyrrolo[3,4-d]pyrimidin-5-one] are 9.3 nM and 92%.
Regarding `Cn1cc(-c2ccc(CN3Cc4ccnc(Oc5cc(C(C)(C)O)ccc5F)c4C3=O)cc2)cn1` [Example 308, 4-(2-fluoro-5-(2-hydroxypropan-2-yl)phenoxy)-2-(4-(1-methyl-1H-pyrazol-4-yl)benzyl)-1,2-dihydro-3H-pyrrolo[3,4-c]pyridin-3-one], the EC50 turned out to be 44 nM and the “activity (%) at 10 μM” value is given as 99%.
Take `O=C1c2c(ccnc2Oc2ccc(C(F)(F)F)cc2F)CN1Cc1ccc(-c2ccnnc2)cc1` [Example 309, 4-(2-fluoro-4-(trifluoromethyl)phenoxy)-2-(4-(pyridazin-4-yl)benzyl)-1,2-dihydro-3H-pyrrolo[3,4-c]pyridin-3-one]: the EC50 came out at 27 nM and the “activity (%) at 10 μM” value was 100%.
With `Cn1ccc(-c2ccc(CN3Cc4ncnc(Oc5ccc(C(F)F)cc5F)c4C3=O)cc2)n1` [Example 310, 4-(4-(difluoromethyl)-2-fluorophenoxy)-6-(4-(1-methyl-1H-pyrazol-3-yl)benzyl)-6,7-dihydro-5H-pyrrolo[3,4-d]pyrimidin-5-one], the EC50 came out at 30 nM and the “activity (%) at 10 μM” value is reported as 105%.
For `Cc1cc(-c2ccc(CN3Cc4ncnc(Oc5ccc(C(F)(F)F)cc5F)c4C3=O)cc2)cnn1` [Example 311, 4-(2-fluoro-4-(trifluoromethyl)phenoxy)-6-(4-(6-methylpyridazin-4-yl)benzyl)-6,7-dihydro-5H-pyrrolo[3,4-d]pyrimidin-5-one], the EC50 was 16 nM and the “activity (%) at 10 μM” value was found to be 100%.
As for `Cc1nn(C)cc1-c1ccc(CN2Cc3ccnc(Oc4cc(C(C)(C)O)ccc4F)c3C2=O)cc1` [Example 312, 2-(4-(1,3-dimethyl-1H-pyrazol-4-yl)benzyl)-4-(2-fluoro-5-(2-hydroxypropan-2-yl)phenoxy)-1,2-dihydro-3H-pyrrolo[3,4-c]pyridin-3-one], the EC50 was 39 nM and the “activity (%) at 10 μM” value turned out to be 96%.
Turning to `O=C1c2c(ncnc2Oc2ccc(C(F)(F)F)cc2F)CN1Cc1ccc(-c2ccnnc2)cc1` [Example 313, 4-(2-fluoro-4-(trifluoromethyl)phenoxy)-6-(4-(pyridazin-4-yl)benzyl)-6,7-dihydro-5H-pyrrolo[3,4-d]pyrimidin-5-one], the EC50 worked out at 27 nM and the “activity (%) at 10 μM” value is recorded as 89%.
On to `Cn1ccc(-c2ccc(CN3Cc4ncnc(Oc5ccc(C(F)(F)F)cc5F)c4C3=O)cc2)n1` [Example 314, 4-(2-fluoro-4-(trifluoromethyl)phenoxy)-6-(4-(1-methyl-1H-pyrazol-3-yl)benzyl)-6,7-dihydro-5H-pyrrolo[3,4-d]pyrimidin-5-one], for which the EC50 was 11 nM and the “activity (%) at 10 μM” value is 89%.
Regarding `Cc1nn(C)cc1-c1ccc(CN2Cc3ncnc(OC4CCC4)c3C2=O)cc1` [Example 323, 4-(cyclobutyloxy)-6-(4-(1,3-dimethyl-1H-pyrazol-4-yl)benzyl)-6,7-dihydro-5H-pyrrolo[3,4-d]pyrimidin-5-one], the EC50 came to 21 nM and the “activity (%) at 10 μM” value came out at 89%.
Consider `CCn1cc(-c2ccc(CN3Cc4ncnc(OC5CCC5)c4C3=O)cc2)cn1` [Example 324, 4-(cyclobutyloxy)-6-(4-(1-ethyl-1H-pyrazol-4-yl)benzyl)-6,7-dihydro-5H-pyrrolo[3,4-d]pyrimidin-5-one], for which the EC50 was 19 nM and the “activity (%) at 10 μM” value is 99%.
With `O=C1c2c(ccnc2OCC2CCCO2)CN1Cc1ccc(-c2ccnc(C(F)(F)F)c2)cc1` (stereo not drawn) [Example 325, 4-((tetrahydrofuran-2-yl)methoxy)-2-(4-(2-(trifluoromethyl)pyridin-4-yl)benzyl)-1,2-dihydro-3H-pyrrolo[3,4-c]pyridin-3-one], the EC50 was found to be 47 nM and the “activity (%) at 10 μM” value was found to be 116%.
Turning to `Cc1cc(-c2ccc(CN3Cc4ccnc(OCC5CCCO5)c4C3=O)cc2)cnn1` (stereo not drawn) [Example 326, 2-(4-(6-methylpyridazin-4-yl)benzyl)-4-((tetrahydrofuran-2-yl)methoxy)-1,2-dihydro-3H-pyrrolo[3,4-c]pyridin-3-one], the EC50 stood at 23 nM and the “activity (%) at 10 μM” value amounted to 108%.
With `Cn1cc(-c2ccc(CN3Cc4ccnc(OCc5ccccc5F)c4C3=O)c(F)c2)nn1` [Example 327, 4-((2-fluorobenzyl)oxy)-2-(2-fluoro-4-(1-methyl-1H-1,2,3-triazol-4-yl)benzyl)-1,2-dihydro-3H-pyrrolo[3,4-c]pyridin-3-one], the EC50 was 6.5 nM and the “activity (%) at 10 μM” value turned out to be 98%.
The corresponding values for `Cc1nn(C)cc1-c1ccc(CN2Cc3ccnc(OCc4ncccc4F)c3C2=O)c(F)c1` [Example 329, 2-(4-(1,3-dimethyl-1H-pyrazol-4-yl)-2-fluorobenzyl)-4-((3-fluoropyridin-2-yl)methoxy)-1,2-dihydro-3H-pyrrolo[3,4-c]pyridin-3-one] are 4.3 nM and 106%.
For `Cn1cc(-c2ccc(CN3Cc4cccc(OCC5CCCO5)c4C3=O)c(F)c2)nn1` (stereo not drawn) [Example 330, 2-(2-fluoro-4-(1-methyl-1H-1,2,3-triazol-4-yl)benzyl)-7-((tetrahydrofuran-2-yl)methoxy)isoindolin-1-one], the EC50 is 30 nM and the “activity (%) at 10 μM” value is on record as 104%.
`Cn1cc(-c2ccc(CN3Cc4ccnc(OCC5CC5)c4C3=O)c(F)c2)nn1` [Example 331, 4-(cyclopropylmethoxy)-2-(2-fluoro-4-(1-methyl-TH-1,2,3-triazol-4-yl)benzyl)-1,2-dihydro-3H-pyrrolo[3,4-c]pyridin-3-one]: the EC50 was 16 nM and the “activity (%) at 10 μM” value worked out at 104%.
